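Five compound concentrations were applied to cells in 96-well plates for 48 hours; endpoints were derived by simple linear interpolation of the resulting dose-response curve. Definition used: TGI = concentration required for complete inhibition of growth.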
What was measured:
Assay in all cases: inhibition of tumour cell growth, NCI panel, 48 h
LXFL 529 NSCLC = test system: LXFL 529 NSCLC
NCI-H460 lung = test system: NCI-H460 lung
NCI-H23 lung = test system: NCI-H23 lung
ACHN renal = test system: ACHN renal
HCT-116 colon = test system: HCT-116 colon
CCRF-CEM leukemia = test system: CCRF-CEM leukemia
DLD-1 colon = test system: DLD-1 colon
SK-OV-3 ovarian = test system: SK-OV-3 ovarian
K-562 leukemia = test system: K-562 leukemia
HT29 colon = test system: HT29 colon
MALME-3M melanoma = test system: MALME-3M melanoma
LOX IMVI melanoma = test system: LOX IMVI melanoma
EKVX NSCLC = test system: EKVX NSCLC
OVCAR-3 ovarian = test system: OVCAR-3 ovarian
A498 renal = test system: A498 renal
NCI-H522 lung = test system: NCI-H522 lung
OVCAR-4 ovarian = test system: OVCAR-4 ovarian
SNB-75 CNS = test system: SNB-75 CNS
RXF 393 renal = test system: RXF 393 renal
HCC-2998 colon = test system: HCC-2998 colon
XF 498 CNS = test system: XF 498 CNS
DMS 114 small cell lung = test system: DMS 114 small cell lung
TK-10 renal = test system: TK-10 renal
U251 CNS = test system: U251 CNS
KM12 colon = test system: KM12 colon
SNB-19 CNS = test system: SNB-19 CNS
UO-31 renal = test system: UO-31 renal
SR leukemia = test system: SR leukemia
HOP-62 NSCLC = test system: HOP-62 NSCLC
MOLT-4 leukemia = test system: MOLT-4 leukemia
M14 melanoma = test system: M14 melanoma
SF-268 CNS = test system: SF-268 CNS
SK-MEL-28 melanoma = test system: SK-MEL-28 melanoma
M19-MEL melanoma = test system: M19-MEL melanoma
SNB-78 CNS = test system: SNB-78 CNS
SK-MEL-2 melanoma = test system: SK-MEL-2 melanoma
HL-60(TB) leukemia = test system: HL-60(TB) leukemia
SF-539 CNS = test system: SF-539 CNS
UACC-257 melanoma = test system: UACC-257 melanoma
SN12C renal = test system: SN12C renal
UACC-62 melanoma = test system: UACC-62 melanoma
RXF-631 renal = test system: RXF-631 renal
OVCAR-5 ovarian = test system: OVCAR-5 ovarian
786-0 renal = test system: 786-0 renal
SF-295 CNS = test system: SF-295 CNS
CAKI-1 renal = test system: CAKI-1 renal
SK-MEL-5 melanoma = test system: SK-MEL-5 melanoma
OVCAR-8 ovarian = test system: OVCAR-8 ovarian
NCI-H226 lung = test system: NCI-H226 lung
RPMI-8226 leukemia = test system: RPMI-8226 leukemia
IGROV1 ovarian = test system: IGROV1 ovarian
KM20L2 colon = test system: KM20L2 colon
SW-620 colon = test system: SW-620 colon
DMS 273 small cell lung = test system: DMS 273 small cell lung
HOP-92 NSCLC = test system: HOP-92 NSCLC
COLO 205 colon = test system: COLO 205 colon
A549 NSCLC = test system: A549 NSCLC
HCT-15 colon = test system: HCT-15 colon
HOP-18 NSCLC = test system: HOP-18 NSCLC

Measured: TGI

O=S(O)c1cc(Cl)cc(Cl)c1OCc1ccccc1
not listed: 786-0 renal | SF-295 CNS | CAKI-1 renal | SK-MEL-5 melanoma | OVCAR-8 ovarian | NCI-H226 lung | RPMI-8226 leukemia | IGROV1 ovarian | KM20L2 colon | SW-620 colon | DMS 273 small cell lung | HOP-92 NSCLC | COLO 205 colon | A549 NSCLC | HCT-15 colon | HOP-18 NSCLC
> 100 µM: all other assays above

COc1ccccc1NC(=O)C(CC(C(=O)Nc1ccccc1OC)/C(C)=N/NC(=O)c1ccccc1O)/C(C)=N/NC(=O)c1ccccc1O (stereo unspecified)
not listed: HCT-116 colon | SR leukemia | UACC-62 melanoma | HCT-15 colon | HOP-18 NSCLC
> 100 µM: all other assays above

Nc1ncnc2c1ncn2C1CC(OC2CCCCO2)C(CO)O1 (stereo unspecified)
not listed: SNB-75 CNS | UACC-62 melanoma | RXF-631 renal | CAKI-1 renal | SK-MEL-5 melanoma
> 100 µM: all other assays above

— PubChem BioAssay (NCI)
